Experimental data: patent US11225480B2, “Malic enzyme inhibitors” (SUN PHARMA ADVANCED RESEARCH COMPANY LTD, priority 2019, dated 2022)
Where a name gives a salt, the structure may show the parent alone.

Legend:
Type in all cases: biochemical
human ME1 enzyme = biological target: T1, human ME1 enzyme (Homo sapiens, UniProt P48163); experiment: ME1 inhibition assay (diaphorase/resazurin coupled fluorescence); details: 10 μM compound concentration; read-out: Malic Enzyme 1 % inhibition (10 μM)
T1 sequence (P48163 1-572): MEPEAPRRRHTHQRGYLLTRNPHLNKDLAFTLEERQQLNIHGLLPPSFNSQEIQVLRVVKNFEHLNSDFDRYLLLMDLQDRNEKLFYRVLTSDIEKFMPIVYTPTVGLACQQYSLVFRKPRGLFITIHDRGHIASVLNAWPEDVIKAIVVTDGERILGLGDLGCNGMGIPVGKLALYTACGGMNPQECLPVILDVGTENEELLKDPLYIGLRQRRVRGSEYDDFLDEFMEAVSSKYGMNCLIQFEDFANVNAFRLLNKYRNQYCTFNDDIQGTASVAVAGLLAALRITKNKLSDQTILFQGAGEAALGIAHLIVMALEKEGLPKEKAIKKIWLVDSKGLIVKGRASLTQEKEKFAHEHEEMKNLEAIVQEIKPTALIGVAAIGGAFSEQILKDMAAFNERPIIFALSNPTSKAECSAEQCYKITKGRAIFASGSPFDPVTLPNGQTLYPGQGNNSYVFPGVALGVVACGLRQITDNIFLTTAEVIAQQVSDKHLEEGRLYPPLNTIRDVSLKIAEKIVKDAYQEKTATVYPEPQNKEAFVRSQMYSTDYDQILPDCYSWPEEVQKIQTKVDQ
In short: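 Compounds at 10 μM preincubated 15 min in 50 mM Tris-HCl pH 7.5, 10 mM MnCl2, 2 mM L-malate, 10 μM resazurin, 0.01 mg/ml diaphorase, then human ME1 added for 5 min; reaction started with NADP+ and run 2 h at room temperature. Resorufin fluorescence (ex 540/em 600 nm) normalized to enzyme-only (100%) and no-enzyme (0%) controls.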

human ME3 enzyme = biological target: T2, human ME3 enzyme (Homo sapiens, UniProt Q16798); experiment: ME3 inhibition assay (diaphorase/resazurin coupled fluorescence); details: 10 μM compound concentration; read-out: Malic Enzyme 3 % inhibition (10 μM)
T2 sequence (Q16798 1-604): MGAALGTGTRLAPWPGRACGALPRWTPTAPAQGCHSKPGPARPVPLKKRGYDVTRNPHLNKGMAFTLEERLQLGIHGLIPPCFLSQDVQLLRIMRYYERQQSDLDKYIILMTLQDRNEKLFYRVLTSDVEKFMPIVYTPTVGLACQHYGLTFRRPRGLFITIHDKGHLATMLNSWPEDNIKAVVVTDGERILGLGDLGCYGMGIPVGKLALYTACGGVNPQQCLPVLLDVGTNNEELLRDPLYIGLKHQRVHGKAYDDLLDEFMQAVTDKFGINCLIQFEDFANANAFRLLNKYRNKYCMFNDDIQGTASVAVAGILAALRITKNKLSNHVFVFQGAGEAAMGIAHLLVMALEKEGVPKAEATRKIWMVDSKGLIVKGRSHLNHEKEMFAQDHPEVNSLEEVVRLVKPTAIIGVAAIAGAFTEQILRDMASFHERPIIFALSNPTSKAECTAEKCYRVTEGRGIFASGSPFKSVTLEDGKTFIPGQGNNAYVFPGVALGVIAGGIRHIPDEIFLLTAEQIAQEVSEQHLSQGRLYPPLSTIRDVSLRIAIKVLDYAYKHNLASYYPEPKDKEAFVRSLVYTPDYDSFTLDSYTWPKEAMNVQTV
In short: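 Coupled read-out: NADPH made by human ME3 (20 nM stock) drives diaphorase conversion of resazurin (50 μM) to resorufin; buffer 50 mM Tris-HCl pH 7.5, 10 mM MnCl2, 3 mM L-malate.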

human ME2 enzyme = human ME2 enzyme (Homo sapiens, UniProt P23368); experiment: ME2 inhibition assay (diaphorase/resazurin coupled fluorescence); details: 10 μM compound concentration; read-out: Malic Enzyme 2 % inhibition (10 μM)
In short: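 Human ME2 (10 μL of 60 nM) was preincubated 5 min at room temperature with compound (10 μM) in 50 mM Tris-HCl pH 7.5, 10 mM MnCl2, 7 mM L-malate, 50 μM resazurin and 0.025 mg/ml diaphorase. The reaction was started with 10 μL of 2 mM β-NAD+ and run 2 hours at room temperature. Resorufin fluorescence (ex 540/em 600 nm) was normalized to enzyme-only (100%) and no-enzyme (0%) controls as % activity.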

Sequence of human ME2 enzyme (P23368 19-584): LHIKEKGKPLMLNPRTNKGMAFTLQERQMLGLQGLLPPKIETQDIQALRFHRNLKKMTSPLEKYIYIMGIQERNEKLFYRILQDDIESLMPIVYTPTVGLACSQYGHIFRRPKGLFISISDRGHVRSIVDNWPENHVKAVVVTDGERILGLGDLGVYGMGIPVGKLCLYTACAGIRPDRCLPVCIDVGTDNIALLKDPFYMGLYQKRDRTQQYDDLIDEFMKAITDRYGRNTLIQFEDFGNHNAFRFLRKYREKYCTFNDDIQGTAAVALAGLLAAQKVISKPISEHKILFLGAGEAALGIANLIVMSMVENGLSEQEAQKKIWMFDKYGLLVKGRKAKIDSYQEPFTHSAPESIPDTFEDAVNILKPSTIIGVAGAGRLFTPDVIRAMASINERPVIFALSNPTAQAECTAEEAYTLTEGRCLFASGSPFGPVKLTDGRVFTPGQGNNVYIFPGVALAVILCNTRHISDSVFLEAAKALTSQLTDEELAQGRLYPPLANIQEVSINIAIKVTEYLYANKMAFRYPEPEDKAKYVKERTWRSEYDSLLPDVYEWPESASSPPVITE

Structure (SMILES)	inhibition at 10 µM (human ME1 enzyme) [%]	inhibition at 10 µM (human ME3 enzyme) [%]	inhibition at 10 µM (human ME2 enzyme) [%]
CC(C)(C(=O)N1CCN(c2ccc(O)cn2)CC1)c1c[nH]c2ccc(F)cc12 [I.169, 2-(5-Fluoro-1H-indol-3-yl)-1-[4-(5-hydroxy-pyridin-2-yl)-piperazin-1-yl]-2-methyl-propan-1-one]	> 90	> 90	> 90
O=C(CCc1ccccn1)N1CCN(c2ccc(O)cn2)CC1 [I.129, 1-[4-(5-Hydroxy-pyridin-2-yl)-piperazin-1-yl]-3-pyridin-2-yl-propan-1-one]	70 to 89	> 90	70 to 89
Cc1cccc(Cl)c1C(=O)N1CCN(c2ccc(O)cn2)CC1 [I.80, (2-Chloro-6-methylphenyl)-[4-(5-hydroxy-pyridin-2-yl)-piperazin-1-yl]-methanone]	> 90	> 90	> 90
O=C(Cc1c[nH]c2ccc(F)cc12)N1CCN(c2ccc(O)cn2)CC1 [I.131, 2-(5-fluoro-1H-indol-3-yl)-1-[4-(5-hydroxypyridin-2-yl)-piperazin-1-yl]-ethanone]	> 90	> 90	> 90
O=C(C(c1ccc(Cl)cc1)c1ccc(Cl)cc1)N1CCN(c2ccc(O)cn2)CC1 [I.58, 2,2-bis(4-Chloro-phenyl)-1-[4-(5-hydroxy-2-pyridyl)-piperazin-1-yl]ethanone]	70 to 89	> 90	50 to 69
O=C(O)c1ccc(-c2cc(C(=O)N3CCN(c4ccc(O)cc4)CC3)cc(N3CCOCC3)n2)cc1 [I.42, 4-[4-[4-(4-Hydroxy-phenyl)-piperazine-1-carbonyl]-6-morpholino-2-pyridyl]-benzoic acid]	> 90	> 90	> 90
O=C(Cc1c[nH]c2ccc(Cl)cc12)N1CCN(c2ccc(O)cn2)CC1 [I.159, 2-(5-Chloro-1H-indol-3-yl)-1-[4-(5-hydroxy-pyridin-2-yl)-piperazin-1-yl]-ethanone]	> 90	> 90	> 90
O=C(CNCC12CC3CC(CC(C3)C1)C2)N1CCN(c2ccc(O)cn2)CC1 [I.57, 2-(1-adamantylmethylamino)-1-[4-(5-hydroxy-2-pyridyl)piperazin-1-yl]ethanone]	70 to 89	> 90	70 to 89
O=C(Cc1ccccc1)N1CCN(c2ccc(O)cn2)CC1 [I.6, 1-[4-(5-Hydroxy-pyridin-2-yl)-piperazin-1-yl]-2-phenyl-ethanone]	> 90	> 90	> 90
O=C(c1cc2cc(F)ccc2[nH]1)N1CCN(c2ccc(O)cn2)CC1 [I.88]	> 90	> 90	70 to 89
Cc1[nH]c2ccccc2c1CC(=O)N1CCN(c2ccc(O)cn2)CC1 [I.127, 1-[4-(5-Hydroxy-pyridin-2-yl)-piperazin-1-yl]-2-(2-methyl-1H-indol-3-yl)-ethanone]	> 90	> 90	> 90
Cc1[nH]c2ccc(Cl)cc2c1CC(=O)N1CCN(c2ccc(O)cn2)CC1 [I.175, 2-(5-Chloro-2-methyl-1H-indol-3-yl)-1-[4-(5-hydroxy-pyridin-2-yl)-piperazin-1-yl]-ethanone]	> 90	> 90	> 90
O=C(Cc1ccccc1Oc1ccccc1)N1CCN(c2ccc(O)cc2)CC1 [I.49, 1-[4-(4-hydroxyphenyl)piperazin-1-yl]-2-(2-phenoxyphenyl)ethanone]	> 90	> 90	> 90
CC(C)(CC(=O)N1CCN(c2ccc(O)cc2)CC1)c1ccccc1 [I.173, 1-[4-(4-Hydroxy-phenyl)-piperazin-1-yl]-3-methyl-3-phenyl-butan-1-one hydrochloride salt]	70 to 89	> 90	> 90
O=C(c1c[nH]c2ccc(F)cc12)N1CCN(c2ccc(O)cc2)CC1 [I.156, (5-Fluoro-1H-indol-3-yl)-[4-(4-hydroxy-phenyl)-piperazin-1-yl]-methanone]	> 90	> 90	> 90
O=C(CCc1ccc(Cl)c(Cl)c1)N1CCN(c2ccc(O)cn2)CC1 [I.79, 3-(3,4-Dichloro-phenyl)-1-[4-(5-hydroxy-pyridin-2-yl)-piperazin-1-yl]-propan-1-one]	> 90	> 90	> 90
O=C(Cc1c[nH]c2cc(F)ccc12)N1CCN(c2ccc(O)cn2)CC1 [I.158, 2-(6-Fluoro-1H-indol-3-yl)-1-[4-(5-hydroxy-pyridin-2-yl)-piperazin-1-yl]-ethanone]	> 90	> 90	> 90
O=C(Cc1c[nH]c2cc(Cl)c(Cl)cc12)N1CCN(c2ccc(O)cn2)CC1 [I.174, 2-(5,6-Dichloro-1H-indol-3-yl)-1-[4-(5-hydroxy-pyridin-2-yl)-piperazin-1-yl]-ethanone]	> 90	> 90	> 90
CC(C)(CC(=O)N1CCN(c2ccc(O)cn2)CC1)c1ccc(F)cc1 [I.161, 3-(4-Fluoro-phenyl)-1-[4-(5-hydroxy-pyridin-2-yl)-piperazin-1-yl]-3-methyl-butan-1-one]	> 90	> 90	> 90
O=C(c1cc2ccccc2oc1=O)N1CCN(c2ccc(O)cn2)CC1 [I.73, 3-[4-(5-Hydroxy-2-pyridyl)-piperazine-1-carbonyl]-chromen-2-one]	70 to 89	> 90	70 to 89
O=C(Cc1cc(F)cc(F)c1)N1CCN(c2ccc(O)cc2)CC1 [I.148, 2-(3,5-difluoro-phenyl)-1-[4-(4-hydroxy-phenyl)-piperazin-1-yl]-ethanone]	> 90	> 90	> 90
O=C(CCC1CC1)N1CCN(c2ccc(O)cn2)CC1 [I.140, 3-Cyclo-propyl-1-[4-(5-hydroxy-2-pyridyl)-piperazin-1-yl]propan-1-one]	> 90	> 90	> 90
O=C(c1c2ccccc2cc2ccccc12)N1CCN(c2ccc(O)cn2)CC1 [I.64]	70 to 89	> 90	50 to 69
Cc1[nH]c2ccc(F)cc2c1CC(=O)N1CCN(c2ccc(O)cn2)CC1 [I.166, 2-(5-Fluoro-2-methyl-1H-indol-3-yl)-1-[4-(5-hydroxy-pyridin-2-yl)-piperazin-1-yl]-ethanone]	> 90	> 90	> 90
O=C(C(O)Cc1ccccc1)N1CCN(c2ccc(O)cn2)CC1 (stereo not drawn) [I.144, 2-Hydroxy-1-[4-(5-hydroxy-pyridin-2-yl)-piperazin-1-yl]-3-phenyl-propan-1-one]	50 to 69	> 90	> 90
CC(C)(CC(=O)N1CCN(c2ccc(O)cn2)CC1)c1ccccc1 [I.125, 1-[4-(5-Hydroxy-pyridin-2-yl)-piperazin-1-yl]-3-methyl-3-phenyl-butan-1-one]	> 90	> 90	> 90
